Results as given in US20210094933A1, “RAPAFUCIN DERIVATIVE COMPOUNDS AND METHODS OF USE THEREOF” (The Johns Hopkins University, priority 2019, published 2021).
Numbered stars: 1 amine (or outer) side, 2 acyl side, 3 side chain; on linkers, the order of the positions; unused ones are H or OH. Square brackets hold non-standard residues; d marks the D form. Side chains are listed from the residue outwards. Peptide text beside a SMILES is read from it. * marks the point of attachment. X1 = COc1ccc(CC[C@@H](N[*:1])c2cccc(OCC(=O)[*:2])c2)cc1OC; X2 = CN(CCC=CC(=O)OCC(C)(C)C(=O)C(=O)[*:2])[*:1]; Pip = O=C(O)[C@@H]1CCCCN1; Morpholide = C1CN(*)CCO1; CO = O=C([*:1])[*:2]; Sar = CNCC(=O)O

What was measured:
Assay type in all cases: cell-based
H929 = assay: Cell proliferation assay (Prolif.), IC50 relative to DMSO control; settings: H929 cells; class relative to DMSO control
Experimental: (§1) Cell Proliferation Assay (Prolif.) Guo et al. (2018) Nat. Chem. 11:254-63. Specific cell lines are indicated in each assay and cultured in complete growth media. Activity is scored according to the IC50 values relative to DMSO control. “Low” indicates an IC50 greater than 600 nM, “Medium” indicates an IC50 between 300 nM and 600 nM “High” indicates an IC50 less than 300 nM. “Rel.Uptake” refers to uptake activity characterization relative to a single concentration assay. “Low” indicates a response greater than 0.6 times the activity relative to DMSO, “Medium” indicates a response between 0.6 and 0.3 times the activity relative to DMSO, “High” indicates a response less than 0.3 times the activity relative to DMSO.

[1] = Cell proliferation assay, single concentration, response relative to DMSO; cell line indicated in each table; settings: NCI-H929 cells
Experimental: as §1

293T = assay: Nucleoside uptake assay (3H-Thymidine), IC50 relative to DMSO control; settings: 293T cells
Experimental: (§2) Nucleoside Uptake Assay (uptake). Nuceloside uptake assays were performed with using 3H-Thymidine as described in Guo et al. (2018) Nat. Chem, 11:254-63. Specific cell lines are indicated in each assay and cultured in complete growth media. Activity is scored according to the IC50 values relative to DMSO control. “Low” indicates an IC50 greater than 600 nM, “Medium” indicates an IC50 between 300 nM and 600 nM “High” indicates an IC50 less than 300 nM. “Rel.Uptake” refers to uptake activity characterization relative to a single concentration assay. “Low” indicates a response greater than 0.6 times the activity relative to DMSO, “Medium” indicates a response between 0.6 and 0.3 times the activity relative to DMSO, “High” indicates a response less than 0.3 times the activity relative to DMSO.

[2] = Nucleoside uptake assay, single concentration (Rel.Uptake), response relative to DMSO; cell line indicated in each table
Experimental: as §2

[3] = 3H-Thymidine uptake, IC50 class relative to DMSO control
[4] = nucleoside uptake, single concentration, 293T cells
[5] = 293 T cells, single concentration
[6] = 293 T cells, nucleoside uptake at single concentration

SMILES | Uptake, 293T (293T; [3]) | Rel. Uptake, 293 T [2, 6] | further results
COc1ccc(CC[C@H]2OC(=O)[C@@H]3CCCCN3C(=O)C(=O)C(C)(C)COC(=O)C=CCCN(C)C(=O)[C@@H](Cc3ccccc3)NC(=O)CN(C)C(=O)[C@@H](Cc3ccccc3)NC(=O)[C@H](Cc3ccc(OC(=O)N4CCOCC4)cc3)N(C)C(=O)CCC(=O)Nc3cccc2c3)cc1OC [Compound 869] |  |  | Prolif. H929 (H929): high; Rel. Prolif., NCI-H929 [1]: low
COc1ccc(CC[C@H]2NC(=O)[C@@H]3CCCCN3C(=O)C(=O)C(C)(C)COC(=O)C=CCCN(C)C(=O)[C@@H](Cc3ccccc3)NC(=O)CN(C)C(=O)[C@@H](Cc3ccccc3)NC(=O)[C@H](Cc3ccc(OC(=O)N4CCOCC4)cc3)NC(=O)COc3cccc2c3)cc1OC [Compound 877] (cyclo([Pip][X1]Y([CO-Morpholide])[dF][Sar][dF][X2])) |  |  | Prolif. H929 (H929): low; Rel. Prolif., NCI-H929 [1]: low
COc1ccc(CC[C@H]2OC(=O)[C@@H]3CCCCN3C(=O)C(=O)C(C)(C)COC(=O)C=CCCN(C)C(=O)[C@H](CC(C)C)N(C)C(=O)[C@H]3CCCN3C(=O)[C@H](CC(=O)OC(C)(C)C)N(C)C(=O)C(c3ccccc3)NC(=O)CCC(=O)Nc3cccc2c3)cc1OC (some centres unmarked) [Compound 1066] | high |  | Rel. Uptake, 293 T [2, 4]: high
COc1ccc(CC[C@H]2OC(=O)[C@@H]3CCCCN3C(=O)C(=O)C(C)(C)COC(=O)C=CCCN(C)C(=O)[C@H](CC(C)C)N(C)C(=O)[C@H]3CCCN3C(=O)[C@H](Cc3ccc(CC(=O)OC(C)(C)C)cc3)NC(=O)C(c3ccccc3)NC(=O)CCC(=O)Nc3cccc2c3)cc1OC (some centres unmarked) [Compound 1081] | medium |  | Rel. Uptake, 293 T [2, 4]: medium
COc1ccc(CC[C@H]2OC(=O)[C@@H]3CCCCN3C(=O)C(=O)C(C)(C)COC(=O)C=CCCN(C)C(=O)[C@H](CC(C)C)N(C)C(=O)[C@H]3CCCN3C(=O)[C@H](Cc3ccc(OCc4ccccc4)cc3)NC(=O)C(c3ccccc3)NC(=O)CCC(=O)Nc3cccc2c3)cc1OC (some centres unmarked) [Compound 1082] | low |  | Rel. Uptake, 293 T [2, 4]: low
COc1ccc(CC[C@H]2OC(=O)[C@@H]3CCCCN3C(=O)C(=O)C(C)(C)COC(=O)C=CCCN(C)C(=O)[C@H](CC(C)C)N(C)C(=O)[C@H]3CCCN3C(=O)[C@H]3C[C@@H](NC(=O)OC(C)(C)C)CN3C(=O)C(c3ccccc3)NC(=O)CCC(=O)Nc3cccc2c3)cc1OC (some centres unmarked) [Compound 1087] | low |  | Rel. Uptake, 293 T [2, 5]: low
COc1ccc(CC[C@H]2OC(=O)[C@@H]3CCCCN3C(=O)C(=O)C(C)(C)COC(=O)C=CCCN(C)C(=O)[C@H](CC(C)C)N(C)C(=O)[C@H]3CCCN3C(=O)[C@H](Cc3ccccc3)N(C)C(=O)[C@H](CC(=O)OC(C)(C)C)NC(=O)CCC(=O)Nc3cccc2c3)cc1OC [Compound 1088] | low |  | Rel. Uptake, 293 T [2, 5]: low
COc1ccc(CC[C@H]2OC(=O)[C@@H]3CCCCN3C(=O)C(=O)C(C)(C)COC(=O)C=CCCN(C)C(=O)[C@@H](c3ccccc3)NC(=O)[C@H](Cc3ccc(OP(C)(C)=O)cc3)NC(=O)[C@H]3CCCN3C(=O)[C@H](CC(C)C)N(C)C(=O)COc3cccc2c3)cc1OC [Compound 1520] | low | low | 
COc1ccc(CC[C@H]2OC(=O)[C@@H]3CCCCN3C(=O)C(=O)C(C)(C)COC(=O)C=CCCN(C)C(=O)[C@H](CC(C)C)N(C)C(=O)[C@H]3CCCN3C(=O)[C@H](Cc3ccc(O)cc3)NC(=O)C(c3ccccc3)NC(=O)CCC(=O)Nc3cccc2c3)cc1OC (some centres unmarked) [Compound 1522] | high | high | 
COc1ccc(CC[C@H]2OC(=O)[C@@H]3CCCCN3C(=O)C(=O)C(C)(C)CNC(=O)C=CCCN(C)C(=O)[C@H](CC(C)C)N(C)C(=O)[C@H]3CCCN3C(=O)[C@H](Cc3ccccc3)N(C)C(=O)C(c3ccccc3)NC(=O)CCC(=O)Nc3cccc2c3)cc1OC (some centres unmarked) [Compound 1555] | high | high | 
COc1ccc(CC[C@H]2OC(=O)[C@@H]3CCCCN3C(=O)C(=O)C(C)(C)COC(=O)C=CCCN(C)NC(c3ccccc3)C(=O)N(C)[C@@H](Cc3ccccc3)C(=O)N3CCC[C@@H]3C(=O)N(C)[C@@H](CC(C)C)C(=O)C(=O)CCOc3cccc2c3)cc1OC (some centres unmarked) [Compound 1556] | low | low | 
COc1ccc(CC[C@H]2NC(=O)[C@@H]3CCCCN3C(=O)C(=O)C(C)(C)CNC(=O)C=CCCN(C)C(=O)[C@H](CC(C)C)N(C)C(=O)[C@H]3CCCN3C(=O)[C@H](Cc3ccccc3)N(C)C(=O)C(c3ccccc3)NC(=O)CCC(=O)Nc3cccc2c3)cc1OC (some centres unmarked) [Compound 1557] | high | high | 
COc1ccc(CC[C@H]2OC(=O)[C@@H]3CCCCN3C(=O)C(=O)C(C)(C)COC(=O)C=CCCN(C)C(=O)[C@H](CC(C)C)N(C)C(=O)[C@H]3CCCN3C(=O)[C@H](Cc3ccc(C(=O)NCCO)cc3)NC(=O)[C@H](c3ccccc3)NC(=O)CCC(=O)Nc3cccc2c3)cc1OC [Compound 1558] |  | high | Uptake, 293T (293T; Table 14): high
COc1ccc(CC[C@H]2OC(=O)[C@@H]3CCCCN3C(=O)C(=O)C(C)(C)COC(=O)C=CCCN(C)C(=O)[C@H](CC(C)C)N(C)C(=O)[C@H]3CCCN3C(=O)[C@H](Cc3ccc(C(=O)Nc4ccccc4)cc3)NC(=O)[C@H](c3ccccc3)NC(=O)CCC(=O)Nc3cccc2c3)cc1OC [Compound 1559] |  | medium | Uptake, 293T (293T; Table 14): me- dium
COc1ccc(CC[C@H]2OC(=O)[C@@H]3CCCCN3C(=O)C(=O)C(C)(C)COC(=O)C=CCCN(C)C(=O)[C@H](CC(C)C)N(C)C(=O)[C@H]3CCCN3C(=O)[C@H](Cc3ccc(C(=O)Nc4cccnc4)cc3)NC(=O)[C@H](c3ccccc3)NC(=O)CCC(=O)Nc3cccc2c3)cc1OC [Compound 1562] |  | low | Uptake, 293T (293T; Table 14): low
COc1ccc(CC[C@H]2OC(=O)[C@@H]3CCCCN3C(=O)C(=O)C(C)(C)COC(=O)C=CCCN(C)C(=O)[C@H](CC(C)C)N(C)C(=O)[C@H]3CCCN3C(=O)[C@H](Cc3ccc(CNC(=O)c4ccccc4)cc3)NC(=O)[C@H](c3ccccc3)NC(=O)CCC(=O)Nc3cccc2c3)cc1OC [Compound 1585] |  | High (“High” indicates a response less than 0.3 times the activity relative to DMSO) | IC50 (293T; Table 13): < 0.3 µM
COc1ccc(CC[C@H]2OC(=O)[C@@H]3CCCCN3C(=O)C(=O)C(C)(C)COC(=O)C=CCCN(C)C(=O)[C@H](CC(C)C)N(C)C(=O)[C@H]3CCCN3C(=O)[C@H](Cc3ccc(CNC(=O)Cc4ccccc4)cc3)NC(=O)[C@H](c3ccccc3)NC(=O)CCC(=O)Nc3cccc2c3)cc1OC [Compound 1586] |  | Med | Uptake, 293T (293T; Table 13): Med
COc1ccc(CC[C@H]2OC(=O)[C@@H]3CCCCN3C(=O)C(=O)C(C)(C)COC(=O)C=CCCN(C)C(=O)[C@H](CC(C)C)N(C)C(=O)[C@H]3CCCN3C(=O)[C@H](Cc3ccc(CNC(=O)CN(C)C)cc3)NC(=O)[C@H](c3ccccc3)NC(=O)CCC(=O)Nc3cccc2c3)cc1OC [Compound 1587] |  | Low (“Low” indicates a response greater than 0.6 times the activity relative to DMSO) | IC50 (293T; Table 13): > 0.6 µM
COc1ccc(CC[C@H]2OC(=O)[C@@H]3CCCCN3C(=O)C(=O)C(C)(C)COC(=O)C=CCCN(C)C(=O)[C@H](CC(C)C)N(C)C(=O)[C@H]3CCCN3C(=O)[C@H](Cc3cccc(NC(C)=O)c3)NC(=O)[C@H](c3ccccc3)NC(=O)CCC(=O)Nc3cccc2c3)cc1OC [Compound 1588] |  | High (“High” indicates a response less than 0.3 times the activity relative to DMSO) | IC50 (293T; Table 13): < 0.3 µM
COc1ccc(CC[C@H]2OC(=O)[C@@H]3CCCCN3C(=O)C(=O)C(C)(C)COC(=O)C=CCCN(C)C(=O)[C@H](CC(C)C)N(C)C(=O)[C@H]3CCCN3C(=O)[C@H](Cc3ccc(NC(=O)Cc4cccnc4)cc3)NC(=O)[C@H](c3ccccc3)NC(=O)CCC(=O)Nc3cccc2c3)cc1OC [Compound 1589] |  | Low (“Low” indicates a response greater than 0.6 times the activity relative to DMSO) | IC50 (293T; Table 13): > 0.6 µM
COc1ccc(CC[C@H]2OC(=O)[C@@H]3CCCCN3C(=O)C(=O)C(C)(C)COC(=O)C=CCCN(C)C(=O)[C@H](CC(C)C)N(C)C(=O)[C@H]3CCCN3C(=O)[C@H](Cc3ccc(CC(=O)NCc4ccccc4)cc3)NC(=O)[C@H](c3ccccc3)NC(=O)CCC(=O)Nc3cccc2c3)cc1OC [Compound 1590] |  | High (“High” indicates a response less than 0.3 times the activity relative to DMSO) | IC50 (293T; Table 14): > 0.6 µM
CCCCCCNC(=O)Cc1ccc(C[C@@H]2NC(=O)[C@H](c3ccccc3)NC(=O)CCC(=O)Nc3cccc(c3)[C@@H](CCc3ccc(OC)c(OC)c3)OC(=O)[C@@H]3CCCCN3C(=O)C(=O)C(C)(C)COC(=O)C=CCCN(C)C(=O)[C@H](CC(C)C)N(C)C(=O)[C@H]3CCCN3C2=O)cc1 [Compound 1591] |  | Med | IC50 (293T; Table 14): > 0.6 µM
